Legend:
alpha-glucosidase = test: Kinetics of alpha-glucosidase inhibition (Lineweaver-Burk plot); assay type: biochemical, Saccharomyces cerevisiae; settings: Lineweaver-Burk plots, two inhibitor concentrations, various PNPG concentrations
Protocol: To determine the mode of inhibition of the compounds, fixed amounts of alpha-glucosidase were incubated with increasing concentrations of PNPG at 37 °C for 15 min, both in the absence and presence of inhibitors. Subsequently, the reactions were stopped, the sample absorbances were measured, and then the values obtained were analyzed using the Lineweaver–Burk plot. For this assay, three evaluations were performed, one in the absence of the inhibitor and the other using different concentrations of the inhibitors (at concentrations equivalent to their respective IC50 values). Again, the evaluations of each compound were performed in triplicate.

alpha-glucosidase enzyme = test: Inhibition of alpha-glucosidase assay (PNPG substrate, 96-well plate); assay type: biochemical; settings: enzyme from Saccharomyces cerevisiae
Protocol: The assay was performed in 96-well plates. Both test samples and the positive control were dissolved in DMSO or MeOH. Test samples (20 μL) were added to their respective wells containing 150 μL of the enzyme (from Saccharomyces cerevisiae purchased from Sigma-Aldrich Co., St. Louis, MO, USA) solution (32 mU/mL), followed by incubation at 37 °C for 7 min. Subsequently, 150 μL of PNPG (4-Nitrophenyl-[…]-D-glucopyranoside, 2 mM) was introduced into each well, and the plate was further incubated at 37 °C for 20 min. The resulting absorbance, corresponding to the p-nitrophenol released during the reaction, was measured at 400 nm. All assays were performed in duplicate. The activity of the samples was calculated as a percentage relative to the control (DMSO or MeOH, instead of the sample solution), using the following equation: %Inhibition=(∆ Acontrol−∆ Asample)/∆ Acontrol×100%
ΔAcontrol: absorbance of the control—absorbance of the blank
ΔAsample: absorbance of the sample—absorbance of the sample blank.
The concentration necessary to achieve a 50% inhibition of enzyme activity (IC50) was calculated through regression analysis. Data obtained from alpha-glucosidase inhibition assays were expressed as the mean ± standard deviation (SD) of three replicates. Statistical analysis was performed using Excel 2019 (Microsoft, Seattle, WA, USA). Finally, a one-way analysis of variance (ANOVA) followed by Tukey’s post-test was used to evaluate possible differences between the means of each data. To determine significant differences, statistical significance was defined as p-values ≤ 0.05 [25].

SMILES | mode of inhibition of alpha-glucosidase (alpha-glucosidase) | IC50 (alpha-glucosidase enzyme) [nM]
C=C(C)[C@@H]1CC[C@]2(C)CC[C@]3(C)[C@H](CC[C@@H]4[C@@]5(C)CCC(=O)C(C)(C)[C@@H]5CC[C@]43C)[C@@H]12 [Compound 1, lupenone] | reversible competitive inhibition | 720
C=C(C)[C@@H]1CC[C@]2(C)CC[C@]3(C)[C@H](CC[C@@H]4[C@@]5(C)CC[C@H](O)C(C)(C)[C@@H]5CC[C@]43C)[C@@H]12 [Compound 2, lupeol] |  | 1050
C[C@H]1[C@H](C)CC[C@]2(C)CC[C@]3(C)C(=CC[C@@H]4[C@@]5(C)CC[C@H](O)C(C)(C)[C@@H]5CC[C@]43C)[C@H]12 [Compound 3, α-amyrin] |  | 2130
CC1(C)CC[C@]2(C)CC[C@]3(C)C(=CC[C@@H]4[C@@]5(C)CC[C@H](O)C(C)(C)[C@@H]5CC[C@]43C)[C@@H]2C1 [Compound 4, β-amyrin] |  | 1220
CCCCCCCCCCCCCCCC(=O)O [Compound 5, palmitic acid] |  | 240000
CC[C@H](CC[C@@H](C)[C@H]1CC[C@H]2[C@@H]3CC=C4C[C@@H](O)CC[C@]4(C)[C@H]3CC[C@]12C)C(C)C [Compound 6, sitosterol] | reversible competitive inhibition | 18700
CC[C@H](/C=C/[C@@H](C)[C@H]1CC[C@H]2[C@@H]3CC=C4C[C@@H](O)CC[C@]4(C)[C@H]3CC[C@]12C)C(C)C [Compound 7, stigmasterol] | reversible competitive inhibition | 163000
C[C@H]1O[C@H](O[C@H]2[C@H](O)[C@@H](O)[C@@H](O[C@H]3[C@H](O)[C@@H](O)C(O)O[C@@H]3CO)O[C@@H]2CO)[C@H](O)[C@@H](O)[C@@H]1N[C@H]1C=C(CO)[C@@H](O)[C@H](O)[C@H]1O (some centres unmarked) [acarbose, reference compound] | competitive inhibition | 

From publication PMC11279897, “Isolation of Alpha-Glucosidase Inhibitors from the Panamanian Mangrove Plant Mora oleifera (Triana ex Hemsl.) Ducke” (Pharmaceuticals, 2024)
